Results reported in patent publication US12427189B2, “Vaccine comprising epitope of heat shock protein, and use thereof” (ASTON SCI. CO., LTD., priority 2018, dated 2025).

What was measured:
[1] = system: mouse mammary carcinoma (MMC) cells; test: Combination of HSP90 peptides and STING agonist in MMC tumor-bearing mice; assay type: in vivo, neu-transgenic mice
Excerpt: (§1) To evaluate effects of the combination therapeutic with HSP90 peptides and STING agonist (tlrl-dmx, InvivoGen, CA, USA), MMC cells (5×10^5) were implanted with s.c in neu-transgenic mice. […] Three immunizations were given 10 days apart. 15 days after the third vaccination, spleen, tumor and serum was harvested in mice. To evaluate survival analysis of the combination effects with HSP90 peptides and STING agonist, mice were monitored two time per week until 90 days following tumor implantation and when tumor reached a size greater than 2,000 mm^3, mice were considered dead.
The levels of HSP90 and HER2 ECD were evaluated by ELISA in the serum of HER2 positive breast cancer patients and mice. Briefly, HSP90 (ADI-SPP-776, Enzo Life Science, NY, USA) and HER2 ECD (YCP5341, Speed Biosystems) recombinant proteins were coated a 96-well microplate with 50 μL per well of the diluted concentration of 20 μg/mL in carbonate buffer. Standard was coated with IgG dilution of human and mouse to serial concentration (0.64˜0.005 μg/mL). […] Samples (200 μL) were added to the wells and incubated overnight at 4° C. […] The optical density of each well at 450 nm was determined using an IMARKTM™ microplate reader (Bio-Rad Laboratories, Hercules, CA, USA). […]

[2] = system: mouse mammary carcinoma (MMC) cells; test: Survival analysis of HSP90 peptides and STING agonist in MMC tumor-bearing mice; assay type: in vivo, neu-transgenic mice; conditions: monitored until 90 days after tumor implantation; tumor >2,000 mm^3 considered dead
Excerpt: as §1

human PBMCs = test: IFN-γ and IL-10 ELISPOT screen of HSP90 peptides in human PBMCs; assay type: cell-based; conditions: human PBMCs from 10 volunteer donors
Description: Serum samples were obtained after written consent, from 25 HER2 positive breast cancer patient, and 25 volunteer donors at the Korea University Anam Hospital (Approval number: 2016AN0090). All sera were aliquoted and stored at −80° C. For human T cell response studies, peripheral blood mononuclear cells (PBMC) were obtained after informed consent, from 10 breast cancer patients, and 10 volunteer donors. Cells were ficolled and cryopreserved as previously described (Guy C T, et al. (1992) Expression of the neu protooncogene in the mammary epithelium of transgenic mice induces metastatic disease. Proceedings of the National Academy of Sciences of the United States of America 89(22):10578-10582). PBMC samples were obtained at the General Clinical Research Center Facility at the University of Washington (Approval number: NIH MO1-RR-00037)
(§2) Color development was stopped by washing under tap water.
This study profiled the peptide sequences with the highest recognition of HSP90 peptide and MHC class II peptide binding by a scoring system combining multiple MHC class II peptide binding algorithms. FIG. 2 depicts the entire HSP90 peptide sequence and identified immunogenic “hotspots”. Among them, 11 peptides with the highest scores in the binding affinity scoring system were selected. The selected 11 15-mer HSP90 peptides (Table 2) were screened for T helper (Th)1 or Th2 immunity in human PBMCs from 10 volunteer donors by IFN-γ ELISPOT assay using as a representative Th1 cytokine, IFN-γ, and a Th2 cytokine, Interleukine-10 (IL-10).

Splenocytes = test: Immunogenicity of HSP90 peptides in immunized FVB mice, IFN-γ ELISPOT of splenocytes; assay type: in vivo; conditions: mice immunized s.c. 100 μg single peptide in CFA/IFA, 3 times; compared with control
Description: To test immunogenicity of the selected peptides in murine model, six to eight-week-old female FVB mice were obtained from Koatech (Gyeonggi, Korea). The mice were immunized subcutaneous (s.c) injection with 100 μg of respective HSP90 peptides of SEQ ID NOs: 1, 2, and 5-14 or Phosphate Buffered Saline (PBS) as a mixture in complete Freund's adjuvant (CFA; F5881, Sigma, MO, USA)/incomplete Freund's adjuvant (IFA; F5506, Sigma). Three immunizations were given 10 days apart. Ten days after the third vaccination, spleen and serum was harvested from each mouse.
as §2

MMC cells [3] = test: Cell viability MTT assay, MMC cells; assay type: cell-based, mouse
Excerpt: (§3) Neu-transgenic mice [strain: FVB/N-Tg(MMTVneu)202Mul] were obtained from the Jackson Laboratory (Bar Harbor, ME). These mice harbor non-mutated, non-activated rat neu under the control of the mouse mammary tumor virus (MMTV) promoter/enhancer. The neu transgene is expressed at low levels in normal mammary epithelium, salivary gland, and lung. Until the age of eight month, 35% of female neu-transgenic mice spontaneously develop mammary carcinomas that display high neu-expression levels. Mouse mammary carcinoma (MMC) cell line was established from a spontaneous tumor in neu-transgenic mouse. MMC cells were maintained in RPMI-1640 medium (ThermoFisher scientific, Utah, USA) supplemented with 10% fetal bovine serum, 100 units/ml penicillin, […] streptomycin and 2 mM L-glutamine, and were incubated in a humidified 37° C. incubator with 5% CO2. Lapatinib was purchased from LC laboratories (L-4899, MA, USA). […]
(§4) Cells were seeded at a density of 1×10^5 cells in 6-well plates. […] Cell viability was quantitatively analysed using the 3-[4,5-dimethylthiazol-2-yl]-2,5-diphenyltetrazolium (MTT) assay. […] The absorbance of the converted MTT dye was measured at 540 nm using an IMARK™ microplate reader (Bio-Rad Laboratories). Cell viability was expressed as the relative percentage compared to untreated cells; experimental error was also calculated. […] The percent of cell survival was calculated using […] […]

LR-MMC cells [4] = test: Cell viability MTT assay, lapatinib-resistant MMC cells; assay type: cell-based, mouse
Excerpt: as §3, §4

MMC cells [5] = test: Lapatinib treatment of MMC tumor-bearing mice; assay type: in vivo, neu-transgenic mice; conditions: day 34, lapatinib 75 mg/kg oral gavage 5 times weekly
Description: (§5) To establishment lapatinib-resistant mouse model, MMC and lapatinib-resistant MMC cells (1×106) were injected flank with s.c in neu-transgenic mice.

LR-MMC cells [6] = test: Lapatinib treatment of LR-MMC tumor-bearing mice; assay type: in vivo, neu-transgenic mice; conditions: lapatinib 75 mg/kg oral gavage 5 times weekly
Description: as §5

LR-MMC cells [7] = conditions: per 10 high-power field, IHC

Cc1ccc2c(=O)c3cccc(CC(=O)O)c3oc2c1C [STING agonist]
mean tumor volume (mean±SD) ([1]; day 35, treatment from tumor >100 mm^3, 3 times): 647±66 mm^3 | expression levels of mouse HER2 ECD (ELISA) ([1]; serum): 89 µg/mL | median survival [2]: 79 days

LEFRALLFVPRRAPF (HSP90 p457-471) [HSP90 15-mer peptide]
Th1 and Th2 immune responses (IFN-γ and IL-10 ELISPOT) (human PBMCs): weak Th1 and Th2 immune responses | antigen-specific T cell response (IFN-γ ELISPOT) (Splenocytes): significantly higher

IVKKHSQFIGYPITL (HSP90 p328-342) [HSP90 15-mer peptide]
Th1 and Th2 immune responses (IFN-γ and IL-10 ELISPOT) (human PBMCs): strong Th1 and Th2 immune responses

SELLRYYTSASGDEM (HSP90 p582-596) [HSP90 15-mer peptide]
Th1 and Th2 immune responses (IFN-γ and IL-10 ELISPOT) (human PBMCs): weak Th1 and Th2 immune responses

LYKDLQPFILLRLLM (HSP90 p109-123) [HSP90 15-mer peptide]
Th1 and Th2 immune responses (IFN-γ and IL-10 ELISPOT) (human PBMCs): strong Th1 and Th2 immune responses

YSNKEIFLRELISNS (HSP90 p160-174) [HSP90 15-mer peptide]
Th1 and Th2 immune responses (IFN-γ and IL-10 ELISPOT) (human PBMCs): weak Th1 and Th2 immune responses | antigen-specific T cell response (IFN-γ ELISPOT) (Splenocytes): significantly higher

LYVRRVFIMDNCEEL (HSP90 p485-499) [HSP90 15-mer peptide]
Th1 and Th2 immune responses (IFN-γ and IL-10 ELISPOT) (human PBMCs): predominantly Th1 immune responses | antigen-specific T cell response (IFN-γ ELISPOT) (Splenocytes): significantly higher

QFGVGFYSAYLVAEK (HSP90 p255-269) [HSP90 15-mer peptide]
Th1 and Th2 immune responses (IFN-γ and IL-10 ELISPOT) (human PBMCs): weak Th1 and Th2 immune responses

TDTGEPMGRGTKVIL (HSP90 p296-310) [HSP90 15-mer peptide]
Th1 and Th2 immune responses (IFN-γ and IL-10 ELISPOT) (human PBMCs): weak Th1 and Th2 immune responses

CS(=O)(=O)CCNCc1ccc(-c2ccc3ncnc(Nc4ccc(OCc5cccc(F)c5)c(Cl)c4)c3c2)o1 [lapatinib]
sensitivity after lapatinib treatment (MMC cells [3]; MMC cells): sensitive in a dose-dependent manner | IC50 (MMC cells [3]; Mus musculus, parent MMC cells): 0.076 µM | apoptosis (LR-MMC cells [4]; LR-MMC cells compared with MMC cells): did not induce significant apoptosis | IC50 (LR-MMC cells [4]; Mus musculus, LR-MMC cells): 0.39 µM | mean tumor volume (mean±SD) (MMC cells [5]): 1711±397 mm^3 | mean tumor volume (mean±SD) (LR-MMC cells [6]): 1212±523 mm^3 | infiltrated CD8+ T cells in tumor (Mean median) (LR-MMC cells [7]): 6.6 counts

QSKILKVIRKNLVKK (HSP90 p527-541) [HSP90 15-mer peptide]
Th1 and Th2 immune responses (IFN-γ and IL-10 ELISPOT) (human PBMCs): predominantly Th1 immune responses | antigen-specific T cell response (IFN-γ ELISPOT) (Splenocytes): significantly higher

SVKDLVILLYETALL (HSP90 p780-794) [HSP90 15-mer peptide]
Th1 and Th2 immune responses (IFN-γ and IL-10 ELISPOT) (human PBMCs): weak Th1 and Th2 immune responses
